In patent publication US20110071174A1, “SUBSTITUTED QUINAZOLINES” (Shire LLC, priority 2008, published 2011):

Legend:
[1] = system: human phosphodiesterase III (PDE III); test: PDE III inhibition; type: biochemical; conditions: more potent than anagrelide
Text: In early volunteer trials, the most frequently reported adverse effects AEs other than headache were palpitations, postural dizziness and nausea. During patient studies, the most frequently reported drug-related AEs were headache, palpitations, oedema/fluid retention, nausea/vomiting, diarrhea, dizziness and abdominal pain. These effects are all likely to arise from the secondary, cardiovascular pharmacology associated with anagrelide resulting from its inhibitory effects on human phosphodiesterase III (PDE III). […] Inhibition of myocardial PDE III leads to positive inotropy (increasing of the force of contractions of the heart), increased chronotropy (increase in heart rate), and peripheral vasodilatation. Such cardiovascular manifestations of this inhibition are typically seen with the classical positive inotropes, milrinone and enoximone, and exploited in the short-term acute treatment of congestive heart failure. However, in the treatment of a so-called silent disease (i.e., asymptomatic) such as ET, the cardiovascular side-effects of palpitations and tachycardia associated with anagrelide limit its utility and a significant proportion of patients—reportedly between 25 and 50%—fail to tolerate the drug during long term treatment.

[2] = system: TPO-induced megakaryocytopoiesis; conditions: cited from earlier work
[3] = Pharmacokinetics and exposure in humans; type: in vivo, human; conditions: typical exposures, greater than anagrelide
Text: The PDE III inhibitory properties of anagrelide are quite distinct from its platelet lowering anti-megakaryocytic effects. Indeed studies have shown no correlation between potency as a PDE III inhibitor and anti-megakaryocytic effects for anagrelide and its principal pharmacologically active metabolite, 3-hydroxyanagrelide (3-OH anagrelide or 3-HA, formerly known as SPD604 or BCH24426). […] Anagrelide's active metabolite, 3-HA, is present in vivo in amounts greatly exceeding those of the parent drug with typical exposures being 2-3 fold greater. Thus by implication 3-OH anagrelide is likely to be a major contributor to the pharmacological actions of the drug.
In addition to the unwanted cardiovascular effects associated with PDE III inhibition, the consequent elevation of cAMP can result in an anti-aggregatory effect. While initially this property may appear to be beneficial in essential thrombocythemia patients predisposed to greater thrombotic risk, such anti-platelet effects, in excess, could have haemorrhagic consequences and on balance may not be desirable. […]

[4] = cited from earlier work
[5] = molecular target: human phosphodiesterase III (PDE III); conditions: cited from earlier work
[6] = system: erythroid or myelomonocytic differentiation; conditions: stimulated by erythropoietin or granulocyte-macrophage colony-stimulating factor; cited from earlier work

| potency as PDE III inhibitor relative to anagrelide [1] | exposure in vivo relative to parent drug [3] | Compound | potency in inhibition of megakaryocytopoiesis relative to parent drug ([2]; compared with anagrelide) | half-life ([4]; typical) [h] | IC50 [5] [nM] | IC50 ([2]; estimated, in vitro human megakaryocytopoiesis, read-out: IC50 for inhibition of TPO-induced megakaryocytopoiesis) [nM] | effect on erythroid or myelomonocytic differentiation [6] | first pass effect ([4]; in vivo) [%] |
| --- | --- | --- | --- | --- | --- | --- | --- | --- |
| over 40 fold | 2-3 fold | O=C1NC2=Nc3ccc(Cl)c(Cl)c3CN2C1O (stereo not drawn) [3-hydroxyanagrelide] | no more potent than the parent drug | 2.5 |  |  |  |  |
|  |  | Cc1[nH]c(=O)c(C#N)cc1-c1ccncc1 [milrinone] |  |  | 170 to 350 |  |  |  |
|  |  | O=C1CN2Cc3c(ccc(Cl)c3Cl)N=C2N1 [Anagrelide, 6,7-dichloro-1,5-dihydroimidazo[2,1-b]-quinazolin-2(3H)-one] |  |  | ~29 | ~26 | does not affect | > 50 |
